Experimental data taken from patent US7572600B2, “Enzymatic activities in chemokine-mediated inflammation” (Chemocentryx, Inc., priority 2004, dated 2009).
Where no end group is shown, it is not given here.

B1: CCL23β Δ24: truncated form of CCL23β lacking the 24-residue N-terminal domain, beginning with the SHAAGtide insertion (protein, listed as Homo sapiens)
chain: MLWRRKIGPQMTLSHAAGFHATSADCCISYTPRSIPCSLLESYFETNSECSKPGVIFLTKKGRRFCANPSDKQVQVCMRMLKLDTRIKTRKN

How the values were obtained:
FPRL1 = target: T1, FPRL1 (Homo sapiens, UniProt P25090); experiment: Receptor signaling (calcium mobilization) in L1.2-FPRL1 cells; format: cell-based; design: expressed in transfected cells; conditions: for calcium mobilization in the FPRL1 transfectant: L1.2 cells stably expressing human FPRL1, undigested
T1 sequence (P25090 1-351): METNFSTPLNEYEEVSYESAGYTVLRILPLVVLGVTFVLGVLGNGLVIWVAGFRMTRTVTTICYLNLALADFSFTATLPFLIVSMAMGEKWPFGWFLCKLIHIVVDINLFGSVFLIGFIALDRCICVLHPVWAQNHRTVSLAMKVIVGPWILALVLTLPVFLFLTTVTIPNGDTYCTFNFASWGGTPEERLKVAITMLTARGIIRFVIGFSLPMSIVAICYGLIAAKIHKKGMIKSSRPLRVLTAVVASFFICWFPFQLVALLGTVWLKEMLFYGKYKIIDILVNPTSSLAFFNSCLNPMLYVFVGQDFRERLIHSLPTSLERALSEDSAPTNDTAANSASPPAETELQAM
Description: (§1) Receptor signaling assay. For individual measurements, cells were loaded for 45 min at room temperature with 2 μM indo-1/AM (Invitrogen, Carlsbad Calif.) in culture medium, then washed with 10 ml PBS and resuspended at 10^6 cells/ml in HBSS containing 0.1% BSA. Cytosolic calcium levels were determined using a Photon Technology International fluorimeter (excitation at 350 nm, ratio of dual emission at 400 and 490 nm). For measuring calcium dose responses, cells were analyzed with a Fluorometric Imaging Plate Reader 384 (FLIPR^384) (Molecular Devices, Sunnyvale, Calif.). Cells were loaded for 1 hr at 37° C. with 5 μM fluo-4 in HBSS with 0.1% BSA, then washed, transferred to black-wall 96-well plates, and subsequently excited at 505 nm with emission recorded at 530 nm with a standard protocol provided by the manufacture. Cells were stimulated with agonists 20 s after the monitoring of fluorescence began. Data were analyzed and plotted in arbitrary units of fluorescence using Prism. To ensure that responses were specific to FPRL1, we utilized a selective small-molecule antagonist of human FPRL1, generated by ChemoCentryx, which was optimized from a high throughput compound library screening approach.
Since FPRL1 has been reported to interact with low affinity and/or potency with a spectrum of potential pathogenic ligands of viral, bacterial and endogenous origin, we performed comparative functional analyses to determine the precise functional domain for the SHAAGtide (FIG. 14). SHAAGtides containing N-terminal and C-terminal truncations and extensions were synthesized, and potencies for receptor signaling in L1.2-FPRL1 cells were tested. […] After removal of the N-terminal amino acid (Met) from SHAAGtide, its potency is reduced approximately 10 fold. Removal of the first two N-terminal amino acids (Met-Leu) totally abolished SHAAGtide's activity on FPRL1. Conversely, removal of the C-terminal three amino residues (AAG) from SHAAGtide had no effect on its activity on FPRL1. Removal of the C-terminal six residues (LSHAAG) reduced the peptide's potency only 3-fold. Many other purported naturally-occurring FPRL1 ligands, including serum amyloid A (SAA), beta-amyloid protein 42, lipoxin A4 and the bacterial tripeptide fMLP were tested.

CCR1 = target: T2, CCR1 (Homo sapiens, UniProt P32246); experiment: Competition binding with 125I-MIP-1α on human monocytes; design: endogenous in cells; host or cells: human CD14+ monocytes from buffy coats
T2 sequence (P32246 1-355): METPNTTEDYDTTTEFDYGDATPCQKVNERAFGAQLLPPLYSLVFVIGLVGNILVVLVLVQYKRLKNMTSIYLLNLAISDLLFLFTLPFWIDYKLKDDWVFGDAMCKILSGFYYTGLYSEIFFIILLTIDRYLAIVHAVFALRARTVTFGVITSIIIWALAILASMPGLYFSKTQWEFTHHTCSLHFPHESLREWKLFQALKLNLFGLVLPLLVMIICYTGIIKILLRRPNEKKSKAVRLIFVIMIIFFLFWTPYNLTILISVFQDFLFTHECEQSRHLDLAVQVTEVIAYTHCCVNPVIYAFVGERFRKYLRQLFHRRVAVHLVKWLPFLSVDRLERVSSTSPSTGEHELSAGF
Description: Binding assay. Competition binding studies were conducted using monocytes, L1.2-CCR1 or L1.2-FPRL1 cells. Cells were incubated for 3 hr at 4° C. with ^125I-MIP-1α (final concentration ˜0.05 nM) or ^125I-WKYMVm (final concentration ˜0.01 nM) in buffer (25 mM HEPES, 140 mM NaCl, 1 mM CaCl2, 5 mM MgCl2 and 0.2% BSA, adjusted to pH 7.1) in the presence of increasing amounts of unlabeled chemokine. Reactions were aspirated onto PEI-treated GF/B glass filters using a cell harvester (Packard). Filters were washed twice (25 mM HEPES, 500 mM NaCl, 1 mM CaCl2, 5 mM MgCl2, adjusted to pH 7.1). Scintillant (MicroScint-10; 35 μl) was added to the filters and counted in a Packard Topcount scintillation counter. Data were analyzed and plotted using Prism (GraphPad Software, San Diego, Calif.).

human neutrophils = experiment: Calcium mobilization in freshly isolated human neutrophils; format: cell-based; conditions: undigested chemokine or peptide (100 nM)
Description: Calcium Mobilization Assay. Cells were loaded for 1 hour with 2 μM indo-1/AM dye (Molecular Probes, Eugene, Oreg.) in culture medium, then washed with 10 ml PBS and resuspended at 10^6/ml in HBSS containing 1% FBS. Cytosolic calcium responses were determined using a Photon Technology International (Lawrenceville, N.J.) fluorimeter, with excitation at 350 nm and dual emission at 400 and 490 nm. Alternatively, cells were loaded with 5 μg/ml Fluo-4 AM dye (Molecular Probes, Eugene, Oreg.), then washed and analyzed on a Fluorometric Imaging Plate Reader 384 (FLIPR^384 Molecular Devices, Sunnyvale, Calif.), with 505 nm excitation and 530 nm emission.
as §1

Molecule	calcium mobilization in the FPRL1 transfectant (FPRL1)	Designation and FPRL1 Activity (FPRL1; SHAAGtide and truncated/other variants)	inhibition of 125I-MIP-1α binding (CCR1)	calcium mobilization (human neutrophils)
MLWRRKIGPQMTLSHAAG [SHAAGtide]	fully effective	sequence; high	did not inhibit	equipotent to CCL23β Δ24
B1	fully effective		moderate competitors	very robust calcium response
